Read-outs that look alike come from different tables or passages of the source.
Assays:
[1] = tested on: HUVEC; experiment: HUVEC growth inhibition assay (crystal violet); format: cell-based; details: for IC50: Homo sapiens
Description: HUVEC (1.5×10^3) are plated in a 96-well plate in […] of EBM-2 (Clonetic #CC3162). After 24 h (day 0), the test compound (100 μL) is added to each well at 2× the desired concentration (5-7 concentration levels) in EBM-2 medium. On day 0, one plate is stained with 0.5% crystal violet in 20% methanol for 10 minutes, rinsed with water, and air-dried. The remaining plates are incubated for 72 h at 37° C. After 72 h, plates are stained with 0.5% crystal violet in 20% methanol, rinsed with water, and air-dried. The stain is eluted with 1:1 solution of ethanol:0.1M sodium citrate (including day 0 plate), and absorbance is measured at 540 nm with an ELISA reader (Dynatech Laboratories). Day 0 absorbance is subtracted from the 72 h plates and data is plotted as percentage of control proliferation (vehicle treated cells). IC50 (drug concentration causing 50% inhibition) is calculated from the plotted data.

[2] = tested on: D407 cells; experiment: 7-ketocholesterol-mediated cytotoxicity, 24-well CCK-8 viability; details: 11 μM 7KCh, 24 hr, CCK-8
[3] = tested on: Breast Cancer, NCI/ADR-RES; experiment: NCI in vitro anti-cancer cell line screen (SRB); details: Homo sapiens, 48 h
Description: (§1) The human tumor cell lines used in the cancer screen panel were grown in RPMI 1640 medium containing 5% FBS and 2 mM L-glutamine. The cells were inoculated into 96-well microtiter plates in 100 μl at plating density ranging from 5000 to 40,000 cell/well. […] Following drug addition, the plates were incubated for an additional 48 h. The assay was terminated by the addition of cold 10% TCA. The supernatant was discarded, and the plates were washed five times with water and air dried. Sulforhodamine B (SRB) solution (100 μl) at 0.4% (w/v) in 1% acetic acid was added to each well, and plates were incubated for 10 min at room temperature. After staining, unbound dye was removed by washing five times with 1% acetic acid and the plates were air dried. Bound stain was subsequently solubilized with 10 mM trizma base, and the absorbance was read on an automated plate reader at a wavelength of 515 nm.
(§2) A sulforhodamine B (SRB) end point was used to calculate the median growth inhibition (GI50). GI50 refers to the concentration at which the drug inhibits tumor cell growth by 50%.

[4] = tested on: Non-Small Cell Lung Cancer, NCI-H226; experiment: NCI in vitro anti-cancer cell line screen (SRB); details: Homo sapiens, NCI-H226, 48 h
Description: as §1, §2

[5] = tested on: ARPE-19 cells; experiment: Fatty acids against 7KCh-mediated cell death (CCK8); format: cell-based
Description: FIGS. 12A-12C depict ARPE-19 cell viability in response to 12 μM 7KCh with or without 0.1-5 μM (A) sterculic acid and (B) stearic acid after 24 hr treatments. Error bars indicate the standard deviations. n=3-5. Two-tailed Student's t-test. (C) Representative images of changes in cell morphology in response to 12 μM 7KCh with or without 1 μM sterculic acid and stearic acid after 24 hr treatments.
ARPE-19 cells were seeded in 24-well plates with 1×10^5 cells per well and allowed to recover for 16-24 hr. Once confluency reached approximately 90%, the effect of the fatty acids against 7KCh-mediated cell death was examined 24 hr after incubation in serum-free medium with 12 μM 7KCh. Fatty acids were tested at 0.1, 0.5, 1, 5 and 10 μM concentrations. The effects of the fatty acids against 7KCh-mediated inflammation and ER stress were examined by incubating cells in 1 μM fatty acids with either 8 μM 7KCh (24 hr for quantitative real-time PCR (qRT-PCR), 24 and 48 hr for immunoblot), or 6 μM 7KCh for 48 hr (for ELISA). Three individual experiments were performed for each treatment with quadruplicate measurements performed for each experiment in 24-well plates.
The cell viability was determined by the dehydrogenase activity of the ARPE-19 cells using Cell Counting Kit-8 (CCK8, Dojindo, Gaithersburg, Md.) according to manufacturer's protocol.
The lowest effective concentrations of fatty acids that offset the 7KCh-mediated cell death were determined. […] Table 3 lists the lowest concentrations of these fatty acids required to maintain full cell viability against 12 μM 7KCh treatment. All unsaturated fatty acids protected against 7KCh-induced cell death. […] DHA, α-linolenic, and linoleic acid prevented 7KCh-mediated cell death at 5 μM but the rest of unsaturated fatty acids and dihydrosterculic acid required 10 μM to be protective.

[6] = tested on: ARPE-19 cells; experiment: qRT-PCR of inflammatory cytokines and ER stress markers, 7KCh-mediated inflammation; format: cell-based
[7] = tested on: Renal Cancer, RXF-393; experiment: NCI in vitro anti-cancer cell line screen (SRB); details: Homo sapiens, RXF 393, 48 h
Description: as §1, §2

Structure (SMILES): CCCCCCCCC1=C(CCCCCCCC(=O)O)C1 [sterculic acid, 8-(2-octacyclopropen-1-yl)octanoic acid]
- apoptosis induction ([1]; HUVEC): no apoptosis
- IC50 ([1]; HUVEC, 72 h, read-out: IC50 value of the anti-proliferative effect): ~11.7 µM
- IC50 ([1]; HUVEC proliferation, read-out: IC50 (drug concentration causing 50% inhibition)): 18.6 µM
- co-treatment concentration that completely offsets the 7KCh cytotoxic effect (viability at level of control) [2]: 5 µM
- GI50 [3]: 10 µM
- GI50 [4]: 10 µM
- cell viability at 0.5 μM ([5]; 0.5 μM + 12 μM 7KCh, 24 hr): significantly increased cell viability
- morphological effects on the cells (images) ([5]; 1 μM + 12 μM 7KCh, 24 hr, FIG. 12C): effectively protect
- CONC. (μM): lowest concentration required to maintain full cell viability against 7KCh ([5]; 12 μM 7KCh for 24 hr, tested 0.1, 0.5, 1, 5 and 10 μM): 1 µM
- protective effect against 7KCh-mediated cell death ([5]; 12 μM 7KCh, 24 hr, 0.1-10 μM fatty acid): by far the most effective compound
- effect on 7KCh-mediated mRNA induction (inflammatory response) ([6]; 1 μM fatty acid + 8 μM 7KCh, 24 hr, FIG. 13): complete inhibition
- effect of fatty acid alone on the mRNA expression of the cytokines ([6]; 1 μM fatty acid alone, no 7KCh, FIGS. 14, 15): no effect
- VEGF mRNA expression ([6]; 8 μM 7KCh alone or with 1 μM fatty acid, 24 hr, FIG. 13A): basal levels
- IL-6 mRNA expression ([6]; 8 μM 7KCh alone or with 1 μM fatty acid, 24 hr, FIG. 13B): basal levels
- GRP78 mRNA expression ([6]; 8 μM 7KCh alone or with 1 μM fatty acid, 24 hr, FIG. 13C): basal levels
- CHOP mRNA expression ([6]; 8 μM 7KCh alone or with 1 μM fatty acid, 24 hr, FIG. 13D): basal levels
- induction of VEGF mRNA ([6]; 8 μM 7KCh alone or with 1 μM fatty acid, FIG. 14A): 2.5 fold
- induction of IL-1β mRNA ([6]; 8 μM 7KCh alone or with 1 μM fatty acid, FIG. 14B): 3.9 fold
- induction of IL-6 mRNA ([6]; 8 μM 7KCh alone or with 1 μM fatty acid, FIG. 14C): 5.1 fold
- induction of IL-8 mRNA ([6]; 8 μM 7KCh alone or with 1 μM fatty acid, FIG. 14D): 1.8 fold
- induction of TNF-α mRNA ([6]; 8 μM 7KCh alone or with 1 μM fatty acid, FIG. 15A): 1.5 fold
- induction of TGF-β1 mRNA ([6]; 8 μM 7KCh alone or with 1 μM fatty acid, FIG. 15B): 1 fold
- induction of GRP78 mRNA ([6]; 8 μM 7KCh alone or with 1 μM fatty acid, FIG. 15C): 1.3 fold
- induction of CHOP mRNA ([6]; 8 μM 7KCh alone or with 1 μM fatty acid, FIG. 15D): 4.1 fold
- GI50 [7]: 10 µM
